What was measured:
[1] = tested on: CCD-1079Sk healthy fibroblast cell line; assay: MTT cytotoxicity assay; assay type: cell-based; settings: 24 h, mean ± standard deviation
Protocol: (§1) CCD-1079Sk healthy fibroblast cell line, MCF-7, and MDA-MB-231 breast cancer cell lines were used in this study. The cells were grown in DMEM/F12 medium containing 10% fetal bovine serum (FBS) and 100 U/mL penicillin/streptomycin at 37 °C in a humidified incubator with 5% CO2. After bringing 80% confluency, the cells were detached using a trypsin solution. For further experiments, cells were resuspended in the growth medium after collection and centrifugation.
(§2) To determine cytotoxicity, the MTT assay was performed using L1aPt-m, L1bPt-m, L1cPt-m, L1aPt-b, L1bPt-b, L1cPt-b, cisPt, and bicalutamide (bical) samples at 10 different concentrations ranging from 100 μM to 0.19 μM (100, 50, 25, 12.5, 6.25, 3.12, 1.56, 0.78, 0.39, and 0.19 μM). The samples were dissolved in DMSO and diluted with the medium. Initial DMSO concentration was kept below 1% to avoid toxicity from the solvent. Briefly, the cells were seeded to 96-well plates at 5 × 10^3 cells/well in a volume of 200 μL, and cells were inoculated overnight. After that, old medium was removed, 100 μL of fresh medium and 100 μL of sample were added to the wells. The cells were incubated with the samples for 24 h. At the end of incubation with the samples, 30 μL of 3-(4,5-dimethylthiazol-2-yl)-2,5-diphenyltetrazolium bromide (MTT) solution was added. After 3 h the medium was removed and 100 μL of DMSO was added to dissolve the formazan crystals. Then the absorbance values were recorded at 540 nm using an ELISA microplate reader (Synergy H1, BioTek). All the experiments were carried out in triplicates, and the results were presented as a mean ± standard deviation. The IC50 values of samples were calculated using a percentage of relative cell viability via GraphPad Prism 5. The viability percentages of cells were calculated using the following formula:
(§3) %relative cell viability=(Abssample/Abscontrol)×100.

[2] = tested on: MCF-7 human breast cancer cell line; assay: MTT cytotoxicity assay; assay type: cell-based; settings: mean ± standard deviation
Protocol: as §1, §2, §3

[3] = tested on: MDA-MB-231 human breast cancer cell line; assay: MTT cytotoxicity assay; assay type: cell-based; settings: mean ± standard deviation
Protocol: as §1, §2, §3

[4] = tested on: CCD-1079Sk cells; assay: Apoptosis assay (Annexin V/7-AAD, flow cytometry); assay type: cell-based; settings: sample at IC50 concentration, 24 h
Protocol: (§4) FITC-Annexin V/7-AAD kit was used for the apoptosis experiment. Briefly, the cells were seeded into 12-well plates at 2 × 10^5 cells/well in 1 mL volume and cells were inoculated overnight. After that, 500 μL of fresh medium and 500 μL of sample at the concentration of IC50 were added to the wells. The cells were incubated with the samples for 24 h, then detached using 0.5 mL of trypsin solution, cells were collected and centrifuged at 3000 g for 3 min. The cells were washed with 200 μL of cell staining buffer, then dispersed in 100 μL of binding buffer. Following this, 5 μL of FITC-Annexin V and 10 μL of 7-AAD were added, and the mixture was incubated in the dark for 30 min. The samples were then analyzed by flow cytometry.
(§5) The Annexin V conjugated Alexa Fluor 488/7-AAD binding assay is based on the difference in fluorescence intensity between apoptotic and nonapoptotic cells stained with the fluorescent Annexin V/7-AAD, which is measured by flow cytometry. Therefore, an apoptosis assay was performed to determine the rate of live, apoptotic, and necrotic cells (Table 2, Figure S43). It is seen that compounds induce early and late apoptosis in MDA-MB-231 cells.

[5] = tested on: MCF-7 cells; assay: Apoptosis assay (Annexin V/7-AAD, flow cytometry); assay type: cell-based, human; settings: sample at IC50 concentration, 24 h
Protocol: as §4
as §5, with “It is seen that compounds induce early and late apoptosis in MDA-MB-231 cells.” left out

[6] = tested on: MDA-MB-231 cells; assay: Apoptosis assay (Annexin V/7-AAD, flow cytometry); assay type: cell-based, human; settings: sample at IC50 concentration, 24 h
Protocol: as §4, §5

[7] = tested on: MCF-7 cells; assay: Cell cycle assay (PI, flow cytometry); assay type: cell-based, human; settings: sample at IC50 concentration, 24 h; 59.5% in control cells
Protocol: (§6) The cell cycle kit was used for the cell cycle experiment. Briefly, the cells were seeded into 12-well plates in a volume of 1 mL at 2 × 10^5 cells/well, and cells were inoculated overnight. After that, 500 μL of fresh medium and 500 μL of the sample at the concentration of IC50 were added to the wells. The cells were incubated with the samples for 24 h, then detached using 0.5 mL of trypsin solution, cells were collected and centrifuged at 3000 g for 3 min. The collecting cells were washed with 1 mL of PBS and fixed with 1 mL of 70% cold ethanol at −20 °C for 24 h. After that, 200 μL of staining solution containing propidium iodide (PI) and RNAse reagents were added to the cells, and the cells were incubated for 30 min in the dark. Cell cycle profiles of synthesized compounds were analyzed using a flow cytometer (BD Accuri C6). The data were analyzed through BD software. Each assay was investigated in triplicate.

[8] = tested on: MDA-MB-231 cells; assay: Cell cycle assay (PI, flow cytometry); assay type: cell-based, human; settings: for effect on cell cycle: summary in conclusion, MDA-MB-231 and/or MCF-7; for MDA-MB-231 cell population in the G1-phase: sample at IC50 concentration, 24 h, 24.5% in control cells
Protocol: as §6

Structure (SMILES) | IC50 [1] [µM] | IC50 ([2]; 24 h) [µM] | IC50 ([3]; 24 h) [µM] | cell % Apoptotic, CCD-1079Sk [4] [%] | cell % Necrotic, CCD-1079Sk [4] [%] | cell % Apoptotic, MCF-7 [5] [%] | cell % Necrotic, MCF-7 [5] [%] | cell % Apoptotic, MDA-MB-231 [6] [%] | cell % Necrotic, MDA-MB-231 [6] [%] | MCF-7 cell population in the G1-phase [7] [%] | effect on cell cycle [8] | apoptosis induction in MCF-7 cells [5] | MDA-MB-231 cell population in the G1-phase [8] [%] | IC50 ([1]; Fibroblast) [µM] | IC50 ([2]; Homo sapiens, MCF7, 24 h) [µM] | IC50 ([3]; Homo sapiens, MDA-MB-231, 24 h) [µM]
N.N.[Cl][Pt][Cl] [CisPt, cis-diamminedichloroplatinum(II), reference compound] | 27.9 ± 7.24 | 3.98 ± 1.44 | 9.16 ± 7.74 | 5.00 ± 0.07 | 3.90 ± 0.14 | 3.45 ± 0.03 | 1.10 ± 0.14 | 14.95 ± 0.74 | 1.55 ± 0.21 |  |  |  |  |  |  | 
[O-]N=C1C(=NO)N(c2ccc(F)cc2)CN1c1ccc(F)cc1.[O-]N=C1C(=NO)N(c2ccc(F)cc2)CN1c1ccc(F)cc1.[Pt+2] [L 1b Pt-b] | 67.9 ± 5.11 | 9.57 ± 5.41 | 9.73 ± 7.28 | 1.90 ± 0.07 | 1.25 ± 0.07 | 2.95 ± 0.11 | 2.20 ± 0.14 | 7.45 ± 0.39 | 2.65 ± 0.07 |  |  |  |  |  |  | 
[O-]N=C1C(=NO)N(c2ccc(F)cc2F)CN1c1ccc(F)cc1F.[O-]N=C1C(=NO)N(c2ccc(F)cc2F)CN1c1ccc(F)cc1F.[Pt+2] [L 1c Pt-b] | 73.9 ± 4.96 | 5.9 ± 2.04 | 6.94 ± 5.57 | 1.85 ± 0.03 | 1.80 ± 0.14 | 2.05 ± 0.03 | 5.35 ± 1.34 | 8.00 ± 0.21 | 3.20 ± 0.14 | 64.1 | regulate the cell cycle and increase the G1 population | induces more cancerous cells to undergo apoptosis |  |  |  | 
O[N+]1=C2C(=[N+](O)[Pt-2]1([Cl])[Cl])N(c1ccc(F)cc1)CN2c1ccc(F)cc1 [L 1b Pt-m] | 54.6 ± 6.25 | 6.91 ± 3.16 | 8.64 ± 7.71 |  |  | 3.65 ± 0.18 | 0.95 ± 0.21 | 5.95 ± 0.25 | 0.65 ± 0.07 |  |  |  |  |  |  | 
[O-]N=C1C(=NO)N(c2ccccc2)CN1c1ccccc1.[O-]N=C1C(=NO)N(c2ccccc2)CN1c1ccccc1.[Pt+2] [L 1a Pt-b] | 47.8 ± 6.42 | 5.58 ± 2.29 | 5.26 ± 5.53 | 3.65 ± 0.03 | 4.15 ± 0.21 | 4.65 ± 0.81 | 0.95 ± 0.35 | 7.65 ± 0.25 | 1.15 ± 0.07 | 64.4 | regulate the cell cycle and increase the G1 population |  | 49.6 |  |  | 
CC(O)(CS(=O)(=O)c1ccc(F)cc1)C(=O)Nc1ccc(C#N)c(C(F)(F)F)c1 (centres unmarked) [Bical, bicalutamide, reference compound] |  |  |  | 5.10 ± 0.21 |  | 2.05 ± 0.03 | 6.35 ± 1.20 | 6.70 ± 0.28 | 1.95 ± 0.21 |  |  |  |  | 9.16 ± 3.18 | 3.78 ± 1.85 | 8.34 ± 6.39
O[N+]1=C2C(=[N+](O)[Pt-2]1([Cl])[Cl])N(c1ccccc1)CN2c1ccccc1 [L 1a Pt-m] | 59.5 ± 5.34 | 8.97 ± 5.28 | 9.63 ± 7.71 | 2.65 ± 0.11 |  |  | 5.45 ± 1.06 | 9.35 ± 0.46 | 0.65 ± 0.21 |  | regulate the cell cycle and increase the G1 population | induces more cancerous cells to undergo apoptosis | 36.1 |  |  | 
O[N+]1=C2C(=[N+](O)[Pt-2]1([Cl])[Cl])N(c1ccc(F)cc1F)CN2c1ccc(F)cc1F [L 1c Pt-m] | 45.2 ± 5.55 | 5.56 ± 2.39 | 25 ± 6.61 | 3.45 ± 0.03 | 3.25 ± 0.07 | 5.95 ± 0.46 | 3.40 ± 0.71 | 6.20 ± 0.14 | 0.55 ± 0.07 |  |  | induces more cancerous cells to undergo apoptosis |  |  |  | 

— paper PMC11407372, “New imidazolidindionedioximes and their Pt(II) complexes: synthesis and investigation of their antitumoral activities on breast cancer cells” (Turkish Journal of Chemistry, 2024)
